Laboratory results: patent US8916526B2, “Flavanone derivative” (National University Corporation Okayama University, priority 2009, dated 2014)
In brackets after ≈: the same amount, converted by molar mass.

What was measured:
Escherichia coli K-12 = assay: Antibacterial activity (MIC) against Gram-negative strains, microdilution; type: cell-based; conditions: for MIC (Gram-nagative) K-12: MIC after 24 h
Description: (§1) The antibacterial activities were measured based on broth dilution techniques of international standards (Clinical Laboratory Standards Institute: CLSI). The activities were shown by minimum inhibitory concentrations (MICs) determined by inoculating the above-mentioned strains at a concentration of about 10^5 […] into Mueller-Hinton broth (manufactured by Difco) containing 0.85% NaCl in 96-well microplates and incubating the plates at 35° C. for 24 hours. Measurement was carried out three times.

[1] = system: Pseodomonas aeruginosa PAOI; assay: as above; type: cell-based; conditions: MIC after 24 h
Description: as §1

[2] = system: Vancomycin intermediate-resistant Staphylococcus aureus Mu50; assay: In vitro infectivity assay (MIC), Exp. Ex. 2-1; type: cell-based; conditions: Gram-positive, microdilution, MIC after 24 h
Description: as §1
(§2) The antibacterial activities of the compounds of the present invention against various strains such as vancomycin-resistant enterococci (VRE), vancomycin intermediate-resistant Staphylococcus aureus (VISA), methicillin-resistant Staphylococcus aureus (MRSA), and methicillin-sensitive Staphylococcus aureus (MSSA) were examined. Of the bacteria used in MIC measurement in this test example, clinical bacteria of MRSA (OM481 strain and OM584 strain) were supplied from Okayama University Hospital (Japan). An MRSA strain N315, a vancomycin intermediate-resistant Staphylococcus aureus (VISA) strain Mu50, and a methicillin-sensitive Staphylococcus aureus (MSSA) strain FDA 209P were used as controls. Vancomycin-resistant enterococcus (VRE) strains NCTC 12201 and FN-1 were supplied from the National Institute of Infectious Disease (Japan).

[3] = system: Vancomycin-resistant enterococci NCTC 12201; assay: In vitro infectivity assay (MIC), Exp. Ex. 2-1; type: cell-based; conditions: Gram-positive; microdilution, MIC after 24 h
Description: as §1, §2

[4] = system: Vancomycin-resistant enterococci FN-1; assay: In vitro infectivity assay (MIC), Exp. Ex. 2-1; type: cell-based; conditions: Gram-positive; microdilution, MIC after 24 h
Description: as §1, §2

[5] = system: Streptococcus pneumoniae R6; assay: In vitro infectivity assay (MIC), Exp. Ex. 2-1; type: cell-based; conditions: Gram-positive; microdilution, MIC after 24 h
[6] = system: Methicillin-resistant S. aureus COL; assay: In vitro infectivity assay (MIC), Exp. Ex. 2-1; type: cell-based, Staphylococcus aureus; conditions: Gram-positive, microdilution, MIC after 24 h
Description: as §1, §2

[7] = system: Methicillin-resistant S. aureus OM584; assay: In vitro infectivity assay (MIC), Exp. Ex. 2-1; type: cell-based, Staphylococcus aureus; conditions: Gram-positive, microdilution, MIC after 24 h
Description: as §1, §2

[8] = system: Methicillin-resistant S. aureus OM481; assay: In vitro infectivity assay (MIC), Exp. Ex. 2-1; type: cell-based, Staphylococcus aureus; conditions: Gram-positive, microdilution, MIC after 24 h
Description: as §1, §2

[9] = system: Methicillin sensitive S. aureus 209P; assay: In vitro infectivity assay (MIC), Exp. Ex. 2-1; type: cell-based, Staphylococcus aureus; conditions: Gram-positive, microdilution, MIC after 24 h
Description: as §1, §2

[10] = system: Methicillin-resistant S. aureus N315; assay: In vitro infectivity assay (MIC), Exp. Ex. 2-1; type: cell-based, Staphylococcus aureus; conditions: Gram-positive, microdilution, MIC after 24 h
Description: as §1, §2

[11] = target: T1, Staphylococcus aureus Topoisomerase IV (Staphylococcus aureus, UniProt P0C1S7+P0C1U9); assay: Topoisomerase IV inhibition (decatenation kit), Exp. Ex. 2-3; type: biochemical; conditions: decatenation of kDNA, 37° C., 30 minutes; read-out: IC50 (S. aureus topoisomerase IV inhibitions)
T1 construct: purchased John Innes Enterprises
Description: (§3) Staphylococcus aureus Topoisomerase IV and Escherichia coli Topoisomerase IV were purchased from John Innes Enterprises. 1 unit of topoisomerase IV was cultured with 200 ng of kinetoplast DNA (kDNA) in 30 L of a reaction solution at 37° C. for 30 minutes under the conditions of 50 mM Tris-HCl (pH 7.5) (S. aureus)/50 mM HEPES-KOH (pH 7.6) (E. coli), 5 mM MgCl2 (S. aureus)/5 mM magnesium acetate (E. coli), 350 mM potassium glutamate (S. aureus)/100 mM potassium glutamate (E. coli), 5 mM dithiotheri (S. aureus)/10 mM dithiotheri (E. coli), 1.5 mM ATP (S. aureus)/1 mM ATP (E. coli), and 40% (w/v) glycerol. The reactions were stopped by adding 8 L of a reaction stop solution (40% sucrose, 100 mM Tris.HCl (pH 7.5), 1 mM EDTA, 0.5 mg/ml bromophenol blue). Agarose gel (1.0%) was poured into TAE (40 mM Tris acetate, 2 mM EDTA).

[12] = target: T2, Escherichia coli Topoisomerase IV (Escherichia coli, UniProt P0AFI2+P20083); assay: as above; type: biochemical; conditions: decatenation of kDNA, 37° C., 30 minutes; read-out: IC50 (E. coli topoisomerase IV inhibitions)
T2 construct: purchased John Innes Enterprises
Description: as §3

E. coli DNA gyrase = target: T3, E. coli DNA gyrase (Escherichia coli, UniProt P0AES4+P0AES6); assay: DNA gyrase inhibition (supercoiling kit), Exp. Ex. 2-2; type: biochemical; conditions: supercoiling activity, 37° C., 30 minutes; read-out: IC50 (E. coli DNA gyrase inhibitions)
T3 construct: purchased John Innes Enterprises #K0001
Description: As a kit for measurement of DNA gyrase of Escherichia coli, a product purchased from John Innes Enterprises (Gyrase Supercoiling assay kit #K0001) was used. Relaxed DNA was modified with gyrase into supercoiled DNA, and reaction products were separated by electrophoresis depending on the sizes of the molecular weights to examine anti-gyrase effects (IC50). 1 unit (1 U) of DNA gyrase and […] of relaxed pBR322 DNA were added to […] of the reaction solution, and the mixture was allowed to react at 37° C. for 30 minutes in the presence of 35 mM Tris-HCl (pH 7.5), 24 mM KCl, 4 mM MgCl2, 2 mM DTT, 1.8 mM spermidine, 1 mM ATP, 6.5% (w/v) glycerol, and 0.1 mg/ml BSA. The reactions were stopped using […] of a reaction stop solution (40% sucrose, 100 mM Tris-HCl (pH 7.5), 1 mM EDTA, 0.5 mg/ml bromophenol blue).

T1 sequence (P0C1U9 whole entry): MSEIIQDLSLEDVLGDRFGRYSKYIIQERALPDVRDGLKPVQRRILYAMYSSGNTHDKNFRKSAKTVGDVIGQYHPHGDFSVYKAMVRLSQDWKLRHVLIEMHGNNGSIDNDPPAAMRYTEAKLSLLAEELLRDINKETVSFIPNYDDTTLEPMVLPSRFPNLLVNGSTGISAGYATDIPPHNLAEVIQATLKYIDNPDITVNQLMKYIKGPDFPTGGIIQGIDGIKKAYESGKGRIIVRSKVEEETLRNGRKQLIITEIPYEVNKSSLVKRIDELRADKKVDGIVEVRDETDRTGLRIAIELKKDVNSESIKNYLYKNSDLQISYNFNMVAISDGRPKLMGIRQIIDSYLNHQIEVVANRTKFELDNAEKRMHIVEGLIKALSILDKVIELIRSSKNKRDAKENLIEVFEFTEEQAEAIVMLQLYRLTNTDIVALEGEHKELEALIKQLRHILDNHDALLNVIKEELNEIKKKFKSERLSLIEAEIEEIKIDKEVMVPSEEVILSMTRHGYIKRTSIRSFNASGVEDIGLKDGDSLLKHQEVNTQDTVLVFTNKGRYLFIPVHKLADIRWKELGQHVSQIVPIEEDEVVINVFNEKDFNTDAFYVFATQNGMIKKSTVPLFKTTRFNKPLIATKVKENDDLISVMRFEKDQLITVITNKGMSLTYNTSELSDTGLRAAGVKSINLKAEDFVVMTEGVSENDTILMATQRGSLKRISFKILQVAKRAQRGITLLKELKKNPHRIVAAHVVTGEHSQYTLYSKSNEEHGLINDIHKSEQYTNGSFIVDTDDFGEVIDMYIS
T1 sequence (P0C1S7 whole entry): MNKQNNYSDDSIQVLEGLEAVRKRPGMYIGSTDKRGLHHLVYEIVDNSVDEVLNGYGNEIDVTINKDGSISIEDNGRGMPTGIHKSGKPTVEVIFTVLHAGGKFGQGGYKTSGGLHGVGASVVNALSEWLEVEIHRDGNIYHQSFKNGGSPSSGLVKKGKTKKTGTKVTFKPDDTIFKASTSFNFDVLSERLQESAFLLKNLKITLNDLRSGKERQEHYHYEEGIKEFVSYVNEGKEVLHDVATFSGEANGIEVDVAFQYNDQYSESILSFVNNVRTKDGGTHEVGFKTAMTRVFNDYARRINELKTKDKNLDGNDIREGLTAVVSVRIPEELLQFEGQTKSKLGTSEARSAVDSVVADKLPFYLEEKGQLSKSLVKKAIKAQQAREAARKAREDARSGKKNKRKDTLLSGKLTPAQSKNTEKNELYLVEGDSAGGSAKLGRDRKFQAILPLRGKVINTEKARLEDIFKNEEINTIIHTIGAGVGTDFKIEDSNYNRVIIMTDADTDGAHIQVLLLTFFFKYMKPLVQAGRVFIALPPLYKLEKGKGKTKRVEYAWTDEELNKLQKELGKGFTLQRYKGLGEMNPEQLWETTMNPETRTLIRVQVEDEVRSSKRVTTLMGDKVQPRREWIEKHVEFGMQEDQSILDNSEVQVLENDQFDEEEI
T2 sequence (P20083 whole entry): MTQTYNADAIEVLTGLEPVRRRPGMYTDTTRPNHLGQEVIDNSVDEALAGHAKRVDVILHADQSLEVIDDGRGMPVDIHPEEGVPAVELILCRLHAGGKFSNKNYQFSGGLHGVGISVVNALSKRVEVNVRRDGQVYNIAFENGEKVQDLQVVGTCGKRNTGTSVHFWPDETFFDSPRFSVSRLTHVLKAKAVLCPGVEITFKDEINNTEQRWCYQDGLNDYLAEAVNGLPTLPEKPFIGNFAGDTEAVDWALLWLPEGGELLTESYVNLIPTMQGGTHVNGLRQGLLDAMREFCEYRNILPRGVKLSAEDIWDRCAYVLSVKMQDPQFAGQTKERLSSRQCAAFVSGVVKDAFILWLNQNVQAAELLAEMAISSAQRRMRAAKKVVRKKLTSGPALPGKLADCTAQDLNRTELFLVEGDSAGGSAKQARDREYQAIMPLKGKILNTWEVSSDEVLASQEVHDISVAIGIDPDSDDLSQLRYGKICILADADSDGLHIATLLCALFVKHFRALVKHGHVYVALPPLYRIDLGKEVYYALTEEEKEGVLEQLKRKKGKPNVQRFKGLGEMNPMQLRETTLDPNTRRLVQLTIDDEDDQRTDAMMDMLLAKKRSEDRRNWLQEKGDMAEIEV
T2 sequence (P0AFI2 whole entry): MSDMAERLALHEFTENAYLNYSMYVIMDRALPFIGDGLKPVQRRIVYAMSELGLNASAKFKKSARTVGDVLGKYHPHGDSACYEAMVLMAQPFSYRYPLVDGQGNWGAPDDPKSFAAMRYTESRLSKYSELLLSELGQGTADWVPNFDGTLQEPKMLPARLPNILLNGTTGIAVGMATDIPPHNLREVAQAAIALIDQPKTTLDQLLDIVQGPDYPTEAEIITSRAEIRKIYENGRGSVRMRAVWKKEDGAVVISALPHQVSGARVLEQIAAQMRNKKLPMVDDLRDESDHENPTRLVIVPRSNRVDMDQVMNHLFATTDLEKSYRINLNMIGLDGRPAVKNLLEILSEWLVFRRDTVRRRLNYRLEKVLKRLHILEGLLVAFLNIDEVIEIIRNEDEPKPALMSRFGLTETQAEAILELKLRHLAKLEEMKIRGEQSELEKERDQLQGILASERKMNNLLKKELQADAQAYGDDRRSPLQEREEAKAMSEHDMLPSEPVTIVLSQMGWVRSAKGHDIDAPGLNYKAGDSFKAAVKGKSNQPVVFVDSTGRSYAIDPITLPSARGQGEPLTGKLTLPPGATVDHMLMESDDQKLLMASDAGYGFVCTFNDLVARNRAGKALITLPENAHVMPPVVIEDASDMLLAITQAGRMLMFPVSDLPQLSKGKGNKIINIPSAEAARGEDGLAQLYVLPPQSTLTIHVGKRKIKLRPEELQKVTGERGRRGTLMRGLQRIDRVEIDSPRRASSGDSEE
T3 sequence (P0AES4 whole entry, one chain of several): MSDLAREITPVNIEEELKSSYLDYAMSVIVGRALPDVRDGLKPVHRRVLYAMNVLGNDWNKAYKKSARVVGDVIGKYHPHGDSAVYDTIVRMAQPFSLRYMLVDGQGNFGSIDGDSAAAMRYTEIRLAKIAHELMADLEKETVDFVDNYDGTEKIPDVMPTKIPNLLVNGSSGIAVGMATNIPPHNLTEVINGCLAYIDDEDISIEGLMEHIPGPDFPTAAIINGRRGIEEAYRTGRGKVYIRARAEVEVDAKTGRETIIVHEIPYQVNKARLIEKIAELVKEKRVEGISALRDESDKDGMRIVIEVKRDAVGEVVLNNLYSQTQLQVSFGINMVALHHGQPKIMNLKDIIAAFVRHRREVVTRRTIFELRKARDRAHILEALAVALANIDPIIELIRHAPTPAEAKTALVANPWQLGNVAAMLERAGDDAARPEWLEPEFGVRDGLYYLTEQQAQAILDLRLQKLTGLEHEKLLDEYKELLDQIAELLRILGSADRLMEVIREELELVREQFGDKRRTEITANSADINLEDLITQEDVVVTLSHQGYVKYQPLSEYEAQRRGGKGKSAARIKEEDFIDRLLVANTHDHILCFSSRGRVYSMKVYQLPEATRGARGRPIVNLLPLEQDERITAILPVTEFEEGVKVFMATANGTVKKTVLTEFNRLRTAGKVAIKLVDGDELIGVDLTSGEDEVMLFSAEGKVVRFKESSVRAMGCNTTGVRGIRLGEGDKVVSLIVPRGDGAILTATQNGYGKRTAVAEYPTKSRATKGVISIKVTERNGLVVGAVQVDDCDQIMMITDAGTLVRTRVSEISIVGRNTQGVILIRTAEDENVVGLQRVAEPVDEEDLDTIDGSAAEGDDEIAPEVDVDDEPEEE

Compound: CC(=O)OC[C@H]1O[C@@H](Oc2cc(O)c3c(=O)c(O[C@@H]4O[C@H](COC(C)=O)[C@H](OC(C)=O)[C@H](OC(C)=O)[C@H]4OC(C)=O)c(-c4ccc(O)c(O)c4)oc3c2)[C@H](OC(C)=O)[C@@H](OC(C)=O)[C@H]1OC(C)=O [Compound 5, 2-(3′,4′Dihydroxyphenyl)-5-hydroxy-3,7-di-β-D-octaacetylgalactosyl-4H-chromen-4-one]
- MIC (Gram-nagative) K-12 (Escherichia coli K-12): >128 µg/mL
- MIC (Gram-nagative) PAO1 [1]: >128 µg/mL
- MIC VISA Mu50 [2]: 64 µg/mL (≈ 66.5 µM)
- MIC VRE NCTC 12201 [3]: 32 µg/mL (≈ 33.2 µM)
- MIC VRE FN-1 [4]: 32 µg/mL (≈ 33.2 µM)
- MIC S. Pneumoniae R6 [5]: 64 µg/mL (≈ 66.5 µM)
- MIC MRSA COL [6]: 128 µg/mL (≈ 133 µM)
- MIC MRSA OM584 [7]: 32 µg/mL (≈ 33.2 µM)
- MIC MRSA OM481 [8]: 32 µg/mL (≈ 33.2 µM)
- MIC MSSA 209P [9]: 64 µg/mL (≈ 66.5 µM)
- MIC MRSA N315 [10]: 64 µg/mL (≈ 66.5 µM)

Compound: CC(=O)OC[C@H]1O[C@@H](Oc2c(-c3ccc(O)c(O)c3)oc3cc(O)cc(O)c3c2=O)[C@H](OC(C)=O)[C@@H](OC(C)=O)[C@H]1OC(C)=O [Compound 12, 2-(3′,4′-Dihydroxyphenyl)-5,7-dihydroxy-3-β-D-tetraacetylgalactosyl-4H-chromen-4-one]
- MIC (Gram-nagative) K-12 (Escherichia coli K-12): >128 µg/mL
- MIC (Gram-nagative) PAO1 [1]: >128 µg/mL
- MIC VISA Mu50 [2]: 128 µg/mL (≈ 202 µM)
- MIC VRE NCTC 12201 [3]: 64 µg/mL (≈ 101 µM)
- MIC VRE FN-1 [4]: 64 µg/mL (≈ 101 µM)
- MIC S. Pneumoniae R6 [5]: 128 µg/mL (≈ 202 µM)
- MIC MRSA COL [6]: >128 µg/mL
- MIC MRSA OM584 [7]: 128 µg/mL (≈ 202 µM)
- MIC MRSA OM481 [8]: 128 µg/mL (≈ 202 µM)
- MIC MSSA 209P [9]: 128 µg/mL (≈ 202 µM)
- MIC MRSA N315 [10]: 128 µg/mL (≈ 202 µM)

Compound: O=C(OC[C@H]1O[C@@H](Oc2c(-c3ccc(O)c(O)c3)oc3cc(O)cc(O)c3c2=O)[C@H](OC(=O)c2ccc(F)cc2)[C@@H](O)[C@H]1O)c1ccc(F)cc1 [Compound 14c, 2-(3′,4′-Dihydroxyphenyl)-5,7-dihydroxy-3-β-D-[2″,6″-di-O-(4-fluorobenzoyl)]galactosyl-4H-chromen-4-one]
- IC50 [11]: 520 nM
- IC50 [12]: 7020 nM
- MIC (Gram-nagative) K-12 (Escherichia coli K-12): >128 µg/mL
- MIC (Gram-nagative) PAO1 [1]: >128 µg/mL
- MIC VISA Mu50 [2]: 2 µg/mL (≈ 2.82 µM)
- MIC VRE NCTC 12201 [3]: 4 µg/mL (≈ 5.65 µM)
- MIC VRE FN-1 [4]: 4 µg/mL (≈ 5.65 µM)
- MIC S. Pneumoniae R6 [5]: 4 µg/mL (≈ 5.65 µM)
- IC50 (E. coli DNA gyrase): 380 nM
- MIC MRSA COL [6]: 8 µg/mL (≈ 11.3 µM)
- MIC MRSA OM584 [7]: 2 µg/mL (≈ 2.82 µM)
- MIC MRSA OM481 [8]: 2 µg/mL (≈ 2.82 µM)
- MIC MSSA 209P [9]: 4 µg/mL (≈ 5.65 µM)
- MIC MRSA N315 [10]: 8 µg/mL (≈ 11.3 µM)

Compound: O=C(Cc1ccc(F)cc1)OC[C@H]1O[C@@H](Oc2c(-c3ccc(O)c(O)c3)oc3cc(O)cc(O)c3c2=O)[C@H](OC(=O)Cc2ccc(F)cc2)[C@@H](O)[C@H]1O [Compound 14e, 2-(3′,4′-Dihydroxyphenyl)-5,7-dihydroxy-3-β-D-[2″,6″-di-O-(4-fluorophenylacetyl)]galactosyl-4H-chromen-4-one]
- IC50 [11]: 460 nM
- IC50 [12]: 7210 nM
- MIC (Gram-nagative) K-12 (Escherichia coli K-12): >128 µg/mL
- MIC (Gram-nagative) PAO1 [1]: >128 µg/mL
- MIC VISA Mu50 [2]: 1 µg/mL (≈ 1.36 µM)
- MIC VRE NCTC 12201 [3]: 0.5 µg/mL (≈ 0.679 µM)
- MIC VRE FN-1 [4]: 0.5 µg/mL (≈ 0.679 µM)
- MIC S. Pneumoniae R6 [5]: 0.5 µg/mL (≈ 0.679 µM)
- IC50 (E. coli DNA gyrase): 1050 nM
- MIC MRSA COL [6]: 8 µg/mL (≈ 10.9 µM)
- MIC MRSA OM584 [7]: 1 µg/mL (≈ 1.36 µM)
- MIC MRSA OM481 [8]: 1 µg/mL (≈ 1.36 µM)
- MIC MSSA 209P [9]: 1 µg/mL (≈ 1.36 µM)
- MIC MRSA N315 [10]: 1 µg/mL (≈ 1.36 µM)

Compound: CCOc1ccc(CCC(=O)OC[C@H]2O[C@@H](Oc3c(-c4ccc(O)c(O)c4)oc4cc(O)cc(O)c4c3=O)[C@H](OC(=O)CCc3ccc(OCC)cc3)[C@@H](O)[C@H]2O)cc1 [Compound 14g, 2-(3′,4′-Dihydroxyphenyl)-5,7-dihydroxy-3-β-D-{2″,6″-di-O-[3′″-(4-ethoxyphenylpropanoyl)]}galactosyl-4H-chromen-4-one]
- IC50 [11]: 2990 nM
- IC50 [12]: > 12000 nM
- MIC (Gram-nagative) K-12 (Escherichia coli K-12): >128 µg/mL
- MIC (Gram-nagative) PAO1 [1]: >128 µg/mL
- MIC VISA Mu50 [2]: 1 µg/mL (≈ 1.22 µM)
- MIC VRE NCTC 12201 [3]: 2 µg/mL (≈ 2.45 µM)
- MIC VRE FN-1 [4]: 2 µg/mL (≈ 2.45 µM)
- MIC S. Pneumoniae R6 [5]: 8 µg/mL (≈ 9.79 µM)
- IC50 (E. coli DNA gyrase): 5390 nM
- MIC MRSA COL [6]: 4 µg/mL (≈ 4.9 µM)
- MIC MRSA OM584 [7]: 1 µg/mL (≈ 1.22 µM)
- MIC MRSA OM481 [8]: 1 µg/mL (≈ 1.22 µM)
- MIC MSSA 209P [9]: 2 µg/mL (≈ 2.45 µM)
- MIC MRSA N315 [10]: 2 µg/mL (≈ 2.45 µM)

Compound: CO[C@@H]1[C@@H](OC(N)=O)[C@@H](O)[C@H](Oc2ccc3c(O)c(NC(=O)c4ccc(O)c(CC=C(C)C)c4)c(=O)oc3c2C)OC1(C)C [Novobiocin, novobiocin, reference compound]
- MIC (Escherichia coli K-12; K12, MIC after 24 h, read-out: MIC (Gram-nagative) K-12): 8 µg/mL (≈ 13.1 µM)
- MIC ([1]; read-out: MIC (Gram-nagative) PAO1): 8 µg/mL (≈ 13.1 µM)
- MIC ([2]; Staphylococcus aureus, VISA, read-out: MIC VISA Mu50): 8 µg/mL (≈ 13.1 µM)
- MIC ([6]; Staphylococcus aureus, MRSA): 0.25 µg/mL (≈ 0.408 µM)
- MIC ([7]; Staphylococcus aureus, MRSA, read-out: MIC MRSA OM584): 0.25 µg/mL (≈ 0.408 µM)
- MIC ([8]; Staphylococcus aureus, MRSA, read-out: MIC MRSA OM481): 0.25 µg/mL (≈ 0.408 µM)
- MIC ([9]; Staphylococcus aureus, 209P / MSSA, read-out: MIC MSSA 209P): 0.125 µg/mL (≈ 0.204 µM)
- MIC ([10]; Staphylococcus aureus, MRSA, read-out: MIC MRSA N315): 0.125 µg/mL (≈ 0.204 µM)

Compound: penicillin [reference compound]
- MIC S. Pneumoniae R6 [5]: 0.5 µg/mL
